In US12133846B2, “Electrophilic androgen receptor (AR) antagonists for AR downregulation and ferroptosis induction in cancer cells” (priority 2019, dated 2024):

Tests used:
[1] = 2-63 releases 12b in aqueous buffer (HPLC); format: physicochemical; details: PBS buffer; 2-63 50 μM, PBS pH 7.4, 5% acetonitrile, 37° C., from HPLC peak area; read-out: half-life of 2-63 (decomposition, release of free ITC 12b) (converted)
Protocol: NAC conjugate 2-63 gradually releases free ITC 12b under physiological condition. The NAC conjugate of ITC could reversibly form free ITCs in aqueous solution (Zhang, Y., Carcinogenesis 2012, 33, 2-9). To test this possibility on the setting of ITC-ARi, 2-63 (50 μM) was dissolved in PBS at physiological pH (7.4), and its decomposition was monitored at 37° C. using HPLC. […] 2-63, therefore, can be viewed as a more water-soluble prodrug of 12b when it is used in cell culture or administrated in vivo. This NAC conjugation approach avoids acute/instant electrophilic insult and can constrain the concentration of electrophilic ITC within certain levels. Since non-cancerous cells usually have a larger GSH/antioxidant pool to neutralize electrophilic/oxidative attack (Trachootham, et al., Cancer Cell 2006, 10, 241-252), different tolerability to 2-63 could be seen between cancerous and noncancerous cells.
2-63 releases 12b in aqueous buffer. Samples for HPLC analysis were prepared by diluting the stock solution (50 mM in DMSO) of 2-63 in PBS buffer (10 mM, pH 7.4) containing 5% acetonitrile. The sample was immediately analyzed right after dilution. The aliquot of incubated samples (37° C.) was analyzed at indicated time points. A linear plot of the log (peak area) versus incubation time was generated to determine the half-life (T1/2) of decomposition. […]

VCaP cells = experiment: MTT viability assay, VCaP cells; format: cell-based; details: Homo sapiens, VCaP, 72 h, read-out: IC50, viability of VCaP cells
Source text: Biological Characterization. ITC-ARi hybrid drugs effectively reduce the viability of PCa cells. By using an MTT assay, it was first examined if the newly synthesized hybrid drugs affect the viability of CRPC-relevant PCa cells. PCa VCaP cells naturally express abundant wild type FL AR as well as AR splice variants (e.g., AR-V7). These cells were, therefore, used as one of the cell culture models in this work to investigate the drug-caused viability loss and AR downregulation.

Sp1 and c-Myc = experiment: Western blotting of transcription factors in VCaP cells; format: cell-based; details: 5.0 and 10 μM, 24 h
Protocol: FL AR is a client protein of Hsp90, and AR-V7 might be chaperoned by Hsps other than Hsp90 (Moses, et al., Cancer Res. 2018, 78, 4022-4035). Because Hsp70 upregulation is an indicator of heat shock protein disruption (Kitson, et al., Nat. Chem. 2013, 5, 307-314) that causes client protein degradation, it was assessed whether 2-63 could change the protein stability of AR and AR-V7. […] 2-63-induced AR/AR-V7 downregulation was partially rescued by the proteasome inhibitor MG-132 (data not shown). This supports the involvement of proteasome degradation in AR reduction. Besides the posttranslational mechanisms, AR downregulation could also be caused by suppressing transcription factors (TFs) that drive the transcription of the AR gene. Sp1 and c-Myc were selected as representatives that could be affected by 2-63. Multiple Sp1 binding sites are located near the transcriptional initiation region of the AR gene.
Western Blotting. […] The protein concentration of supernatants was determined using the Pierce BCA Protein Assay Kit (Thermo Fisher, Cat #23225). […] The blots were developed in the Enhanced Chemiluminescence mixture and detected by ImageQuant™ LAS 4000 imaging system (GE). Density of protein bonds were calculated and analyzed by using imageJ software downloaded from the National Institute of Health website.

22Rv1 cells = experiment: BSO pretreatment plus drug, MTT viability, 22Rv1 cells
Protocol: (§1) Cell viability was then assessed using an MTT assay.
(§2) PCa cells (6×10^3 cells/well) were seeded into 96-well plates overnight and then treated with indicated compounds at indicated concentrations and time durations. The MTT (3-(4, 5-Dimethylthiazol-2-yl)-2,5-diphenyltetrazolium bromide) assay was performed according to the standard protocol. Briefly, MTT (0.5 mg/mL) was incubated with cells at 37° C. for 3 hours. Supernatant was removed, followed by the addition of dimethyl DMSO (100 μl). After incubation for 30 minutes at 37° C., absorbance was read at 570 nm on a microplate reader.

RWPE-1 cells = experiment: BSO pretreatment plus 2-63, MTT viability, RWPE-1 cells; details: BSO 100 μM plus 2-63 5 μM, 24 h
Protocol: as §1, §2

CC(=O)N[C@H](CSC(=S)NCCCCCCc1ccc(N2C(=S)N(c3ccc(C#N)c(C(F)(F)F)c3)C(=O)C2(C)C)cn1)C(=O)O [2-63, N-acetyl-S-((6-(5-(3-(4-cyano-3-(trifluoromethyl)phenyl)-5,5-dimethyl-4-oxo-2-thioxoimidazolidin-1-yl)pyridine-2-yl)hexyl)carbamothioyl)-D-cysteine]
half-life at 50 μM [1]: 3.4 h
IC50 (VCaP cells): 6.09 µM
Sp1 and c-Myc protein level (Sp1 and c-Myc): dose-dependently reduced
combinatorial effect with BSO (interaction index), 22Rv1 (22Rv1 cells; BSO 2.5-10 μM 16 h pretreatment, then 2-63 1-10 μM 24 h, synergism = index <0.8): synergistically reduced viability
cytotoxicity at 5 µM (22Rv1 cells; Homo sapiens, 22Rv1, 24 h, read-out: viability reduction, 22Rv1 cells): 65%
viability of RWPE-1 cells remaining (RWPE-1 cells): Eighty
